Experimental data from the NIST ThermoML archive (doi:10.1016/j.fluid.2004.09.013).

Details: for mass density: Fluid (supercritical or subcritical phases), Vibrating tube method; for vapor or sublimation pressure: Liquid

C=CCC [1-butene]
Details	mass density [kg/m3]
388.24 K, 35013 kPa	554.66
388.24 K, 40001 kPa	562.62
393.24 K, 3099 kPa	433.35
393.24 K, 4988 kPa	452.98
393.24 K, 10001 kPa	483.54
393.24 K, 14990 kPa	503.16
393.24 K, 20005 kPa	518.2
393.24 K, 24996 kPa	530.47
393.24 K, 30000 kPa	540.98
393.24 K, 35004 kPa	550.18
393.24 K, 39996 kPa	558.42
398.24 K, 3328 kPa	420.6
398.24 K, 4984 kPa	441.24
398.24 K, 9995 kPa	475.63
398.24 K, 14988 kPa	496.67
398.24 K, 20004 kPa	512.53
398.24 K, 24995 kPa	525.32
398.24 K, 29999 kPa	536.22
398.24 K, 34991 kPa	545.71
398.24 K, 40002 kPa	554.2
403.24 K, 3570 kPa	406.72
403.24 K, 4981 kPa	428.43
403.24 K, 9984 kPa	467.46
403.24 K, 14984 kPa	490.08
403.24 K, 19994 kPa	506.77
403.24 K, 24991 kPa	520.14
403.24 K, 29990 kPa	531.44
403.24 K, 34986 kPa	541.24
403.24 K, 40010 kPa	549.99
408.24 K, 3826 kPa	391.44
408.24 K, 4981 kPa	414.13
408.24 K, 9995 kPa	459.14
408.24 K, 14983 kPa	483.4
408.24 K, 19998 kPa	501
408.24 K, 24993 kPa	514.95
408.24 K, 29994 kPa	526.66
408.24 K, 34991 kPa	536.79
408.24 K, 40009 kPa	545.77
413.24 K, 4097 kPa	374.62
413.24 K, 4986 kPa	397.78
413.24 K, 9991 kPa	450.43
413.24 K, 14983 kPa	476.61
413.24 K, 20002 kPa	495.19
413.24 K, 24998 kPa	509.75
413.24 K, 30000 kPa	521.88
413.24 K, 34989 kPa	532.32
413.24 K, 40005 kPa	541.58
418.24 K, 4381 kPa	356.12
418.24 K, 4990 kPa	378.2
418.24 K, 9997 kPa	441.54
418.24 K, 14996 kPa	469.76
418.24 K, 20000 kPa	489.3
418.24 K, 24996 kPa	504.48
418.24 K, 29999 kPa	517.07
418.24 K, 34991 kPa	527.85
418.24 K, 40005 kPa	537.36
423.24 K, 5017 kPa	354.2
423.24 K, 9991 kPa	431.88
423.24 K, 14996 kPa	462.7
423.24 K, 20000 kPa	483.36
423.24 K, 24995 kPa	499.21
423.24 K, 29997 kPa	512.25
423.24 K, 34989 kPa	523.35
423.24 K, 39991 kPa	533.12
428.24 K, 5020 kPa	318.6
428.24 K, 9997 kPa	422.29
428.24 K, 14995 kPa	455.57
428.24 K, 19996 kPa	477.35
428.24 K, 24996 kPa	493.9
428.24 K, 29993 kPa	507.4
428.24 K, 34987 kPa	518.87
428.24 K, 39990 kPa	528.9
433.24 K, 5019 kPa	257.92
433.24 K, 9998 kPa	412.15
433.24 K, 14987 kPa	448.26
433.24 K, 19989 kPa	471.28
433.24 K, 24994 kPa	488.57
433.24 K, 29992 kPa	502.55
433.24 K, 34997 kPa	514.38
433.24 K, 40003 kPa	524.73
438.24 K, 5011 kPa	195.21
438.24 K, 9986 kPa	401.49
438.24 K, 14995 kPa	440.85
438.24 K, 19991 kPa	465.16
438.24 K, 24999 kPa	483.18
438.24 K, 29997 kPa	497.7
438.24 K, 35010 kPa	509.95
438.24 K, 39994 kPa	520.5
443.24 K, 5018 kPa	165.31
443.24 K, 14986 kPa	433.23
443.24 K, 20005 kPa	458.99
443.24 K, 24988 kPa	477.7
443.24 K, 30010 kPa	492.78
443.24 K, 35012 kPa	505.33
443.24 K, 39996 kPa	516.19
443.25 K, 9990 kPa	390.35
448.24 K, 5018 kPa	148
448.24 K, 14981 kPa	425.58
448.24 K, 19992 kPa	452.7
448.24 K, 24997 kPa	472.33
448.24 K, 29998 kPa	487.86
448.24 K, 34998 kPa	500.83
448.24 K, 39998 kPa	512
448.25 K, 9991 kPa	378.84
453.24 K, 5018 kPa	136.35
453.24 K, 14996 kPa	418.01
453.24 K, 19984 kPa	446.42
453.24 K, 24987 kPa	466.88
453.24 K, 29994 kPa	482.99
453.24 K, 34990 kPa	496.33
453.24 K, 40001 kPa	507.8

Details	vapor or sublimation pressure [kPa]
395.35 K	2678.7
403.65 K	3085.8
409.68 K	3413.2
415.36 K	3739.2
